Measured values taken from PMC6272685, “Docking and Antiherpetic Activity of 2-Aminobenzo[de]-isoquinoline-1,3-diones” (Molecules, 2015).
≈ marks a conversion by molar mass, not a printed value. Entries after “also recorded” stand apart in the source; their conditions may differ.

Experiments:
HSV-1 = test: cytopathic effect inhibition assay against HSV-1 in Vero cells; assay type: cell-based, herpes simplex virus 1 (GHSV-UL46); conditions: for HSV-1 EC50: Vero cells, 48 h, cytopathic effect inhibition; for antiviral activity against HSV-1 in words: in comparison with compounds 14–16; for HSV-1 SI: ratio of CC50 to EC50; for activity class in terms of SI-values (HSV-1): virus not named, agrees with HSV-1 SI of Table 2; on activity class in terms of SI-values (HSV-1): key: inactive (SI < 2); active (SI ≥ 2)
Experimental: (§1) Vero cells (derived from the kidney of a normal African green monkey) were obtained from the American Type Culture Collection (ATCC, Manassas, VA, USA). The viral strains used were GHSV-UL46 for HSV-1 and the G strain for HSV-2. The Vero cells were propagated in Dulbecco’s modified Eagle’s medium (DMEM) supplemented with 10% heat-inactivated foetal bovine serum (FBS), 1% L-glutamine, HEPES buffer and 50 µg/mL gentamycin. All cells were maintained at 37 °C in a humidified atmosphere with 5% CO2 and were subcultured two times a week.
(§2) The antiviral screening was performed using a cytopathic effect inhibition assay at the Regional Center for Mycology and Biotechnology (RCMB, Al-Azhar University, Cairo, Egypt). This assay was selected to show specific inhibition of a biological function, that is, a cytopathic effect in susceptible mammalian cells. In brief, monolayers of 10,000 Vero cells adhering at the bottom of the wells in a 96-well microtiter plate were incubated for 24 h at 37 °C in a humidified incubator with 5% CO2. The plates were washed with fresh DMEM and challenged with 10^4 doses of herpes simplex 1 or 2 virus, and then the cultures were simultaneously treated with two-fold serial dilutions of the tested compound, starting from 500 µg/mL and going up to about 2 µg/mL (500, 250, 125, 62.5, …, 1.95 µg/mL) in a fresh maintenance medium; following this, they were incubated at 37 °C for 48 h. An infection control, as well as an untreated Vero cell control were made in the absence of tested compounds. […] Antiviral activity was determined by the inhibition of the cytopathic effect compared to a control, that is, the protection offered by the tested compound to the cells was scored. Three independent experiments were assessed, each containing four replicates per treatment.
(§3) After the incubation period, the media was aspirated, and then the cells were stained with a 1% crystal violet solution for 30 min. Thereafter, all excess stain was removed by rinsing the plates with tap water. The plates were allowed to dry, and then glacial acetic acid (30%) was added to all wells and mixed thoroughly. The absorbance of the plates was measured after gentle shaking on a microplate reader (Tecan Inc., Morrisville, NC, USA), at 590 nm. The viral inhibition rate was calculated as follows: [(ODtv − ODcv)/(ODcd − ODcv)] × 100% where ODtv, ODcv and ODcd indicate the absorbance of the tested compounds with virus-infected cells, the absorbance of the virus control and the absorbance of the cell control, respectively.
EC50 values were determined directly from the curve obtained by plotting the inhibition of the virus yield against the concentration of the samples. […] This index is referred to as a therapeutic index, and it was also used to determine whether a compound warranted further study.

HSV-2 = test: cytopathic effect inhibition assay against HSV-2 in Vero cells; assay type: cell-based, herpes simplex virus 2 (G strain); conditions: for HSV-2 EC50: Vero cells, 48 h, cytopathic effect inhibition; for antiviral activity against HSV-2 in words: in comparison with compounds 14–16; for HSV-2 SI: ratio of CC50 to EC50; on activity class in terms of SI-values (HSV-2): key: inactive (SI < 2); active (SI ≥ 2)
Experimental: as §1, §2, §3
EC50 values were determined directly from the curve obtained by plotting the inhibition of the virus yield against the concentration of the samples. The selectivity index (SI) was calculated from the ratio of CC50 to EC50 in order to determine whether each compound had sufficient antiviral activity that exceeded its level of toxicity. This index is referred to as a therapeutic index, and it was also used to determine whether a compound warranted further study.

Vero cells = test: cytotoxicity evaluation using viability assay (crystal violet); assay type: cell-based, African green monkey; conditions: 48 h
Experimental: as §1
The Vero cell lines in the cytotoxicity assay were seeded in 96-well plates at a cell concentration of 1 × 10^4 cells per well in 100 µL of the growth medium. Fresh medium containing different concentrations of the tested sample was added after 24 h of seeding. Serial two-fold dilutions of the tested compound were added to confluent cell monolayers dispensed into 96-well, flat-bottomed microtiter plates (Falcon, Jersey, NJ, USA) using a multichannel pipette. The microtiter plates were incubated at 37 °C in a humidified incubator with 5% CO2 for a period of 48 h. Three wells were used for each concentration of the tested sample. Control cells were incubated without test samples and with or without DMSO. The small percentage of DMSO present in the wells (maximal 0.1%) was not found to affect the experiment.
After the end of the incubation period, the viable cell yield was determined by a colorimetric method. In brief, the process of treatment the media with crystal violet solution and measurement of absorbance at 590 nm using a microplate reader was mentioned above. The absorbance was proportional to the number of surviving cells in the culture plate. All the results were corrected for background absorbance detected in wells without added stain. Treated samples were compared with the cell control in the absence of the tested compounds. All experiments were carried out in triplicate. The cell cytotoxicity effect of each tested compound was calculated.
Statistics were done using a one-way ANOVA test, and the percentage cell viability was calculated using Microsoft Excel®, as follows: % Cell viability = [(Mean Abscontrol− Mean Abstest metabolite)/Mean Abscontrol] × 100 where Abs equals the absorbance at 590 nm. The CC50 was estimated from graphic plots and the STATA statistical analysis package was used for the drawing of the dose response curve, in order to calculate CC50. Concerning antiviral evaluation, all experiments and data analysis were performed in RCMB, Al-Azhar University, Cairo, Egypt.

| SMILES | HSV-1 EC50 (HSV-1) | antiviral activity against HSV-1 in words (HSV-1) | HSV-1 SI (HSV-1) | HSV-2 EC50 (HSV-2) | CC50 (Vero cells) | activity class in terms of SI-values (HSV-1) (HSV-1) | antiviral activity against HSV-2 in words (HSV-2) | HSV-2 SI (HSV-2) | activity class in terms of SI-values (HSV-2) (HSV-2) |
| --- | --- | --- | --- | --- | --- | --- | --- | --- | --- |
| O=C1c2cccc3cccc(c23)C(=O)N1NC(=S)NC1CCCCC1 [Compound 18] | 319 ± 3.7 µg/mL | low activity | 1.5 | >500 µg/mL | 482 ± 14 µg/mL (≈ 1360 µM) |  |  |  |  |
| O=C1c2cccc3cccc(c23)C(=O)N1NC(=S)Nc1ccccc1 [Compound 17] | 236 ± 4.9 µg/mL | low activity | 2.2 | >500 µg/mL | 518 ± 34 µg/mL (≈ 1490 µM) | active |  |  |  |
| O=C1CCC(=O)N1N1C(=O)c2cccc3cccc(c23)C1=O [Compound 19] | >500 µg/mL |  |  | >500 µg/mL | 220 ± 16 µg/mL (≈ 748 µM) |  |  |  |  |
| O=C1c2cccc3cccc(c23)C(=O)N1N=Cc1cccnc1 [Compound 13] | 117.2 ± 3.1 µg/mL |  | 3.9 | 308 ± 7.1 µg/mL | 458 ± 27 µg/mL (≈ 1520 µM) | active | low activity | 1.5 |  |
| COc1cccc(C=NN2C(=O)c3cccc4cccc(c34)C2=O)c1 [Compound 5] | 176 ± 4.6 µg/mL | low activity | 2.6 | >500 µg/mL | 452 ± 9 µg/mL (≈ 1370 µM) | active |  |  |  |
| O=C1c2cccc3cccc(c23)C(=O)N1n1c(=O)c2cc3c(=O)n(N4C(=O)c5cccc6cccc(c56)C4=O)c(=O)c3cc2c1=O [Compound 24] | >500 µg/mL |  |  | >500 µg/mL | 386 ± 17 µg/mL (≈ 636 µM) |  |  |  |  |
| O=C1c2cccc3cccc(c23)C(=O)N1N1C(=O)c2cccc3cccc(c23)C1=O [Compound 22] | 74.6 ± 3.4 µg/mL | good antiviral effect | 7.5 | 428 ± 10.2 µg/mL | 560 ± 46 µg/mL (≈ 1430 µM) |  |  | 1.3 |  |
| C=CCNC(=S)NN1C(=O)c2cccc3cccc(c23)C1=O [Compound 16] | 17.8 ± 1.4 µg/mL | highest effects | 5.4 | 292 ± 4.8 µg/mL | 96 ± 12 µg/mL (≈ 308 µM) | active |  | 0.3 |  |
| O=C1c2cccc3cccc(c23)C(=O)N1N=Cc1ccsc1 [Compound 15] | 16.2 ± 1.1 µg/mL | most active; also recorded: highest effects | 11.1 | 56.7 ± 2.6 µg/mL | 180 ± 8 µg/mL (≈ 588 µM) |  |  | 3.2 | active |
| O=C1c2cccc3cccc(c23)C(=O)N1N=Cc1ccco1 [Compound 14] | 19.6 ± 0.9 µg/mL | most active; also recorded: highest effects | 16.4 | 71.8 ± 1.8 µg/mL | 321 ± 23 µg/mL (≈ 1110 µM) |  |  | 4.5 | active |
| COc1ccccc1C=NN1C(=O)c2cccc3cccc(c23)C1=O [Compound 4] | 189 ± 3.2 µg/mL |  | 2.6 | 312 ± 9.6 µg/mL | 486 ± 18 µg/mL (≈ 1470 µM) | active | low activity | 1.6 |  |
| O=C1c2cccc3cccc(c23)C(=O)N1N=Cc1ccccc1 [Compound 3] | 158 ± 1.8 µg/mL |  | 1.2 | >500 µg/mL | 196 ± 22 µg/mL (≈ 653 µM) |  |  |  |  |
| CCC=NN1C(=O)c2cccc3cccc(c23)C1=O [Compound 2] | >500 µg/mL |  |  | >500 µg/mL | 317 ± 13 µg/mL (≈ 1260 µM) |  |  |  |  |
| O=C1C=CC(=O)N1N1C(=O)c2cccc3cccc(c23)C1=O [Compound 20] | >500 µg/mL |  |  | >500 µg/mL | 220 ± 16 µg/mL (≈ 753 µM) |  |  |  |  |
| O=C1c2cccc3cccc(c23)C(=O)N1N=Cc1cccc([N+](=O)[O-])c1 [Compound 6] | 174 ± 1.8 µg/mL | low activity | 1.8 | >500 µg/mL | 316 ± 11 µg/mL (≈ 915 µM) |  |  |  |  |
| COc1cc(C=NN2C(=O)c3cccc4cccc(c34)C2=O)ccc1O [Compound 9] | 78.3 ± 1.5 µg/mL | good antiviral effect | 3.0 | 108 ± 4.1 µg/mL | 236 ± 8 µg/mL (≈ 681 µM) | active |  | 2.2 | active |
| O=C1c2cccc3cccc(c23)C(=O)N1N=Cc1ccc(Cl)cc1Cl [Compound 11] | >500 µg/mL |  |  | >500 µg/mL | 316 ± 24 µg/mL (≈ 856 µM) |  |  |  |  |
| O=C1c2cccc3cccc(c23)C(=O)N1N=Cc1ccc(O)cc1 [Compound 7] | 113 ± 4.6 µg/mL | good antiviral effect | 3.6 | 220 ± 3.8 µg/mL | 412 ± 24 µg/mL (≈ 1300 µM) | active | low activity | 1.9 |  |
